# Laboratory results taken from patent US20240408211A1, “COMPOSITIONS AND METHODS OF AMELIORATING AVERSIVENESS OF AVERSIVE STIMULI BY INHIBITION OF PURINERGIC RECEPTORS” (Monell Chemical Senses Center, priority 2021, published 2024).
# Where two headings read alike, the source gives them in different places.
# How the values were obtained:
# [1] = solutions (2 mg/mL) and suspensions in acidic media; room temperature; cited from earlier work
# [2] = cited from earlier work
# [3] = intraperitoneal, cited from earlier work
# nodose C-fiber = conditions: guinea pigs; cited from earlier work
# P2X2/3 = molecular target: T1, P2X2/3 (Homo sapiens, UniProt P56373+Q9UBL9); assay: P2X2/3 stable HEK293 cell lines responding to α,β-meATP (screening assay); type: cell-based; conditions: P2X2/3 stable HEK293 lines; FIGS. 8A and 8B
# T1 construct: expressed in transfected cells; host or cells: HEK293
# T1 sequence (Q9UBL9 1-471): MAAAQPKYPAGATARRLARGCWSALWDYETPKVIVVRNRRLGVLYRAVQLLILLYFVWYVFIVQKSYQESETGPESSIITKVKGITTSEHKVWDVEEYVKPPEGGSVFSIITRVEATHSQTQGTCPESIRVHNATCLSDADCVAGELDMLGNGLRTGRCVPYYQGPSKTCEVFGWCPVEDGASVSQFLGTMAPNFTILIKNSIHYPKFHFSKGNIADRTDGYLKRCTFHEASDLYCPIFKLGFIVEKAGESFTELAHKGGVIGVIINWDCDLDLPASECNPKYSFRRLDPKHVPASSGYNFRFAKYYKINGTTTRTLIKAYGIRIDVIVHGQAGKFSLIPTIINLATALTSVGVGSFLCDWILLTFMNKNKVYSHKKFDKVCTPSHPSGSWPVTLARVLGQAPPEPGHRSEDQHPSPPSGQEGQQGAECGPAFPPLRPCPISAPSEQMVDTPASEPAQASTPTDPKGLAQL
# T1 sequence (P56373 1-397): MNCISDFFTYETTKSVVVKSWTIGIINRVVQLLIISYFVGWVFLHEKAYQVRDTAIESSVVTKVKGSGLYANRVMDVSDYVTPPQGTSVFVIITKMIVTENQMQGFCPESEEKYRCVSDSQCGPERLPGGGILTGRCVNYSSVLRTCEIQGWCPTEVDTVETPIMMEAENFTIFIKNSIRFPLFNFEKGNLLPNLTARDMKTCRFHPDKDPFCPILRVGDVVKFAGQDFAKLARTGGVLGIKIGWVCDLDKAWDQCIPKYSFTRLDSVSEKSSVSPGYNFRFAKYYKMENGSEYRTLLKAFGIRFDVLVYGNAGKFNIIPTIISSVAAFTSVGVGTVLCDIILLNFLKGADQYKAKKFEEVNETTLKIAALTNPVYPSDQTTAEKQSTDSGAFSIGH
# Description: In this study, we built stable cell lines expressing P2X2/3 in HEK293 cells via transfection with either P2X2-Neo or P2X3-Zeo constructs, following which selection was performed using Zeocin, G418. Picked clones were grown out from single cells (cultured continuously in the presence of Zeocin and G418) using cloning rings.
# The resulted stable cell lines are used for characterizing putative taste-blockers.
# chorda tympani nerve = conditions: cited from earlier work
# [4] = system: P2X3/P2X2/3 receptors on bladder afferent nerves; conditions: rats; cited from earlier work
# Description for humans: In some experiments, we used a regimen of two 1-minute rinses with 500 μM AF-353 composition (i.e., oral topical administration).
# In this study, we tested an AF-353 composition in humans as an oral rinse after receiving IRB approval for its use. First, we tested rinsing 100 μM (0.04 mg/mL) orally for 2 minutes as 4×30 sec rinses with expectoration. We tested before and after sour, bitter, sweet, and salty solutions (quinine HCl, NaCl, Praziquantal, sucrose, CO2).
# Next, we tested rinsing 500 μM (0.2 mg/mL) AF-353 for two minutes, in 2×1 min increment rinses with expectoration.
smiles,measurement,setting,value
"COc1cc(C(C)C)c(Oc2cnc(N)nc2N)cc1I [AF-353, 5-[5-iodo-4-methoxy-2-(1-methylethyl)phenoxy]-2,4-pyrimidinediamine]",physically and chemically stable for,[1],at least 4 weeks
same,half-life,[2]; in rat,1.63 h
same,oral bioavailability,"[2]; rat, in vivo, po",high
same,CNS penetration,"[2]; rat, in vivo",good
same,plasma concentration,[3]; 0.25 mg/kg,1.3 µM
same,plasma concentration,[3]; 6 mg/kg,44 µM
same,bronchoconstriction-induced nodose C-fiber discharge,nodose C-fiber,blocks
same,"intensity of sour, bitter, sweet and salty solutions after treatment (moderate before treatment)","humans; 100 μM (0.04 mg/mL), 2 minutes as 4×30 sec rinses, four participants",mild
same,tastes after treatment,"humans; 500 μM (0.2 mg/mL), 2×1 min rinses with expectoration",eliminated
same,recovery from abolishment of taste,"humans; 500 μM rinse, at 2 hours after rinsing",100 % of normal
same,recovery of taste perception faster in some subjects,"humans; 500 μM rinse, some subjects",about 20 minutes
same,ability to taste fully recovered after,humans; after oral rinse,1.5 to 3 h
same,recovery of the ability to taste began,humans; after oral rinse,≤ 60 min
same,"taste blockade (sweet, sour, salty, bitter (Quinine and Praziquantel))","humans; topical oral rinse and expectoration, 4 people",completely blocked taste
same,"negative side effects (oral numbing, tingling, strange oral sensations)",humans; topical oral rinse in humans,did not cause numbness or any strange sensations
same,block of aroma or carbonation irritation,"humans; topical oral rinse, 4 people",did not block
same,response of the stable cell lines,P2X2/3,dose-dependent manner
same,chorda tympani nerve responses elicited by orally applied taste stimuli,"chorda tympani nerve; 1.0 or 1.1 mM flowed over the anterior tongue for 10 min, at 10 and 30 min after application",eliminated
same,chorda tympani nerve responses to all tastants,"chorda tympani nerve; intraperitoneal injection, 6 mg/kg",abolished
same,decrease of chorda tympani nerve responses,"chorda tympani nerve; intraperitoneal, 0.25 mg/kg",~50%
same,activity mediated by P2X3/P2X2/3 receptors on bladder afferent nerves,[4],counteracts
